Reference: the supplement of paper PMC13380429

Key:
Conditions in all cases: 72 h
Vero E6 [1] = assay: drug sensitivity score (DSS) for viability; higher = more toxic; extreme values may be limits of the assay
HepG2 [2] = assay: as above
Calu-3 [3] = assay: as above
U2OS [4] = assay: as above
Caco-2 [5] = assay: as above
Vero E6 [6] = assay: cell viability relative to DMSO; higher = less toxic
HepG2 [7] = assay: as above
Calu-3 [8] = assay: as above
U2OS [9] = assay: as above
Caco-2 [10] = assay: as above
Calu-3 [11] = assay: relative viability EC50 (midpoint between 100% and the lowest measured viability); higher = less toxic
Caco-2 [12] = assay: as above
Vero E6 [13] = assay: as above
HepG2 [14] = assay: as above
U2OS [15] = assay: as above

| SMILES | drug sensitivity score (Vero E6 [1]) | drug sensitivity score (HepG2 [2]) | drug sensitivity score (Calu-3 [3]) | drug sensitivity score (U2OS [4]) | drug sensitivity score (Caco-2 [5]) | cell viability (Vero E6 [6]; 1 nM) [%] | cell viability (Vero E6 [6]; 10 nM) [%] | cell viability (Vero E6 [6]; 100 nM) [%] | cell viability (Vero E6 [6]; 1000 nM) [%] | cell viability (Vero E6 [6]; 10000 nM) [%] | cell viability (HepG2 [7]; 1 nM) [%] | cell viability (HepG2 [7]; 10 nM) [%] | cell viability (HepG2 [7]; 100 nM) [%] | cell viability (HepG2 [7]; 1000 nM) [%] | cell viability (HepG2 [7]; 10000 nM) [%] | cell viability (Calu-3 [8]; 1 nM) [%] | cell viability (Calu-3 [8]; 10 nM) [%] | cell viability (Calu-3 [8]; 100 nM) [%] | cell viability (Calu-3 [8]; 1000 nM) [%] | cell viability (Calu-3 [8]; 10000 nM) [%] | cell viability (U2OS [9]; 1 nM) [%] | cell viability (U2OS [9]; 10 nM) [%] | cell viability (U2OS [9]; 100 nM) [%] | cell viability (U2OS [9]; 1000 nM) [%] | cell viability (U2OS [9]; 10000 nM) [%] | cell viability (Caco-2 [10]; 1 nM) [%] | cell viability (Caco-2 [10]; 10 nM) [%] | cell viability (Caco-2 [10]; 100 nM) [%] | cell viability (Caco-2 [10]; 1000 nM) [%] | cell viability (Caco-2 [10]; 10000 nM) [%] | relative viability EC50 (Calu-3 [11]) [µM] | relative viability EC50 (Caco-2 [12]) [µM] | relative viability EC50 (Vero E6 [13]) [µM] | relative viability EC50 (HepG2 [14]) [µM] | relative viability EC50 (U2OS [15]) [µM] |
| --- | --- | --- | --- | --- | --- | --- | --- | --- | --- | --- | --- | --- | --- | --- | --- | --- | --- | --- | --- | --- | --- | --- | --- | --- | --- | --- | --- | --- | --- | --- | --- | --- | --- | --- | --- |
| CNc1nc(-c2ccc3c(N)n[nH]c3c2)cc(N2C[C@@H](C(=O)NC3CCCCC3)CC[C@H]2C)n1 | 2.3 | 5.7 | 5.9 | 3.2 | 4.8 | 97.1 | 94.9 | 98.6 | 91 | 71.9 | 103 | 108 | 101 | 72.4 | 53.9 | 93.5 | 93.3 | 87.5 | 77.3 | 48.1 | 93.7 | 101 | 95.9 | 91 | 62.3 | 106 | 106 | 102 | 79 | 58 | 0.737 |  |  |  |  |
| Cc1nc(-c2cn3c(n2)-c2ccc(-c4cnn(C(C)(C)C(N)=O)c4)cc2OCC3)n(C(C)C)n1 [taselisib] | 3.5 | 11.6 | 16.9 | 6.2 | 8.9 | 106 | 106 | 97.3 | 85 | 62.6 | 97.4 | 84.8 | 70.3 | 62.7 | 52 | 99.2 | 88.1 | 63.6 | 36 | 24 | 102 | 97.3 | 90.4 | 70.3 | 57.2 | 106 | 99.6 | 90.8 | 59.4 | 32.4 | 0.107 | 0.649 |  |  |  |
| O=c1oc2cc(O)ccc2s1 [tioxolone] | 0 | 0 | 1.9 | 0 | 0.5 | 101 | 98.1 | 99.9 | 94.2 | 101 | 104 | 90.4 | 96 | 93.7 | 104 | 99.8 | 102 | 97.8 | 98.5 | 64.3 | 96.2 | 103 | 100 | 104 | 95.6 | 90.6 | 97.9 | 88.6 | 107 | 77.2 |  | > 10 | > 10 | > 10 | > 10 |
| COc1ccccc1OCC(O)CNC(C)C (stereo not drawn) [moprolol] | 0 | 0 |  | 0 | 0 | 102 | 99.6 | 105 | 99.5 | 102 | 98.3 | 113 | 100 | 98.3 | 103 |  |  |  |  |  | 101 | 96.6 | 99.7 | 102 | 103 | 97.7 | 95.4 | 99.6 | 98.2 | 92.7 |  | > 10 | > 10 | > 10 | > 10 |
| CN(C)CCN(C)CCc1ccc(Cl)c(Cl)c1 [BD-1047] | 0 | 1.6 |  | 0 | 0 | 94.5 | 104 | 96.8 | 93.6 | 97.4 | 98.3 | 102 | 96.2 | 85.5 | 89.9 |  |  |  |  |  | 97.2 | 102 | 93.4 | 97.5 | 94.7 | 95.4 | 102 | 98.3 | 94.6 | 91.8 |  | > 10 | > 10 | > 10 | > 10 |
| Cc1cc(C(=O)O)sc1C(N)C(=O)O (stereo not drawn) [3-MATIDA] | 0 | 0 |  | 0 | 0 | 92.6 | 99.2 | 95.2 | 93.5 | 98 | 96.4 | 94.8 | 83.2 | 96.3 | 91.8 |  |  |  |  |  | 103 | 110 | 96.8 | 102 | 97.5 | 96.9 | 105 | 97.3 | 99.4 | 96.9 |  | > 10 | > 10 | > 10 | > 10 |
| c1ccc(CCNc2nc(-c3ccccc3)cs2)cc1 [fanetizole] | 0 | 0 |  | 0 | 0.9 | 98.7 | 99.7 | 101 | 98.4 | 100 | 101 | 96.9 | 103 | 94.5 | 100 |  |  |  |  |  | 104 | 104 | 104 | 97.7 | 101 | 96.4 | 87.3 | 92.3 | 88.9 | 87.3 |  | > 10 | > 10 | > 10 | > 10 |
| COc1ccc(Cn2ccc3ccc(C(=O)NO)cc32)cc1 | 3.4 | 3.2 | 0.1 | 1.6 | 1.2 | 96.7 | 100 | 104 | 94.8 | 51.5 | 105 | 102 | 97.7 | 94.2 | 56.4 | 103 | 95.2 | 96.8 | 100 | 86.7 | 97.9 | 98.2 | 97.5 | 97 | 72.4 | 98 | 97 | 100 | 101 | 70.1 | > 10 |  |  |  |  |
| Cc1cccc(-c2n[nH]cc2-c2ccc(F)c(-c3cnn(CCO)c3)c2)n1 | 0 | 0 |  | 0.1 | 0 | 96.1 | 101 | 98 | 93.4 | 94.5 | 103 | 94.1 | 95.2 | 106 | 109 |  |  |  |  |  | 103 | 98.8 | 95.7 | 89.3 | 92.6 | 93.3 | 91.9 | 99.7 | 92.5 | 91.5 |  | > 10 | > 10 | > 10 | > 10 |
| COc1ccc(S(=O)(=O)N(C(C)=O)c2ccccc2/C=C/c2cc[n+]([O-])cc2)cc1 [HMN-214] | 10.7 | 11.3 | 5.3 | 9.8 | 8 | 94.6 | 97.9 | 99.8 | 41.8 | 41 | 98.4 | 105 | 98.1 | 40.3 | 38 | 101 | 95 | 105 | 71.5 | 60.4 | 97.5 | 95.8 | 96.9 | 51.9 | 29.3 | 105 | 89.6 | 94.2 | 60.3 | 48.4 |  | 0.41 | 0.324 | 0.323 | 0.634 |
| CCCCCCCCCCCCCCOC(=O)c1cccnc1 [myristyl-nicotinate] | 0 | 0 |  | 0 | 0 | 96.6 | 98.2 | 97.6 | 102 | 101 | 98.7 | 93.5 | 105 | 99.4 | 102 |  |  |  |  |  | 101 | 96.7 | 101 | 98.4 | 102 | 98.2 | 103 | 97.7 | 97.8 | 103 |  | > 10 | > 10 | > 10 | > 10 |
| CC(C(=O)O)c1ccc2c(c1)CC(=O)c1ccccc1S2 (stereo not drawn) [zaltoprofen] | 0 | 0 |  | 0 | 0 | 93.8 | 101 | 90.9 | 100 | 104 | 95.5 | 103 | 101 | 110 | 111 |  |  |  |  |  | 99.9 | 97.3 | 99.6 | 98.1 | 101 | 99.7 | 93.8 | 98.4 | 106 | 101 |  | > 10 | > 10 | > 10 | > 10 |
| NCCc1c[nH]c2ccc(O)cc12 [serotonin] | 0 | 0 |  | 0 | 0 | 107 | 102 | 103 | 98.9 | 101 | 89.2 | 91.4 | 94.3 | 88.4 | 107 |  |  |  |  |  | 91.3 | 95.8 | 94.3 | 97.3 | 92.9 | 96.8 | 89.1 | 102 | 90.2 | 89.5 |  | > 10 | > 10 | > 10 | > 10 |
| COc1cc2c(c(OC)c1OC)-c1ccc(OC)c(=O)cc1[C@@H](NC(C)=O)CC2 [colchicine] | 13.2 | 21.2 |  | 23.9 | 17.5 | 101 | 101 | 96.9 | 31.1 | 28.5 | 104 | 91.2 | 38 | 34.8 | 39.7 |  |  |  |  |  | 104 | 103 | 25.3 | 20 | 19.2 | 97.2 | 103 | 45.8 | 46.1 | 41.1 |  | 0.0419 | 0.308 | 0.0241 | 0.0407 |
| COc1ccc2nc3[nH]nc(C)c3c(NCCOCCO)c2c1 | 0 | 2.4 | 2.1 | 0 | 0 | 106 | 98 | 102 | 99.4 | 91.9 | 104 | 97.2 | 102 | 87.6 | 75 | 106 | 107 | 88.8 | 94.7 | 70 | 102 | 102 | 95.9 | 105 | 104 | 103 | 102 | 89.6 | 100 | 96.8 |  | > 10 | > 10 | > 10 | > 10 |
